Assay: gradient 5% acetonitrile 3 min, to 50% in 2 min, to 85% in 15 min, held 3 min, 100 µL/min
Conditions: column: Zorbax Extend-C18 2.1 x 50 mm; eluents: water / acetonitrile, 0.1% formic acid
Method in brief: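 Standards, all pure, were combined into mixtures of ~100 molecules and run at 100 μL/min on a Zorbax Extend-C18 column (2.1 × 50 mm, 1.8 μm) with water and acetonitrile, each containing 0.1% formic acid. A coupled quadrupole time-of-flight mass spectrometer operated in positive and negative ionization mode. Retention time values come from computationally picked adduct peaks, each inspected manually.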

| Compound | RP-LC retention time |
| --- | --- |
| Cc1csc(-c2cc(S(=O)(=O)NC(C)C)c(C)n2C)n1 | 852 s |
| Cc1ccc(-c2noc(-c3ccc(=O)n(Cc4cc(C)ccc4C)c3)n2)cc1 | 1260 s |
| CCN(CC)CCNC(=O)c1ccc2nc(C(C)C)oc2c1 | 605 s |
| COc1ccc(N2CCN(C(=O)C3(CCO)CC34CCOCC4)CC2)cc1 (configuration not stated) | 628 s |
| COc1ccc(C)cc1NC(=O)CNC(=O)c1ccc(=O)[nH]c1 | 588 s |
| O=C([C@@H]1C[C@H](F)CN1S(=O)(=O)c1ccc(F)c(F)c1)N1CCCCC1 | 780 s |
| CSc1nnc(-c2nn(C)c3c2CN(C(=O)c2ccc(C)c(C)c2)CC3)n1C | 770 s |
| Cc1ccc(-n2nc(OC(C)C(=O)NCc3ccco3)ccc2=O)cc1C (configuration not stated) | 748 s |
| CCNC(=O)C1CCN(S(=O)(=O)c2cc(-c3noc(C)n3)cs2)CC1 | 713 s |
| O=C1CCN(Cc2ccc3c(c2)CCO3)CCCCCCN1 | 586 s |
| CCC(C)NC(=O)C1CCN(S(=O)(=O)c2cc(-c3noc(C(C)C)n3)sc2C)CC1 (configuration not stated) | 1020 s |
| O=C(O)c1nnn(-c2ccc(C(F)(F)F)cc2)c1C(F)(F)F | 824 s |
| O=C([C@@H]1C[C@H](F)CN1C(=O)c1cccc(F)c1)N1CCOCC1 | 614 s |
| CNC(=O)c1ccc(-c2nc3cc(NS(=O)(=O)c4cccc(Cl)c4)ccc3n2C)cc1 | 653 s |
| CCn1ncc2ccc(C(=O)NC)cc21 | 608 s |
| CCN(CC)CCCC(C)Nc1nc(C)cc(Nc2ccc3nc(C)cc(N)c3c2)n1 (configuration not stated) | 568 s |
| C[C@@H](Cc1ccc(OCC(=O)O)cc1)NC[C@@H](O)c1cccc(Cl)c1 | 704 s |
| COCCNC(=O)C1c2ccccc2C(=O)N(C)C1c1cccs1 (configuration not stated) | 679 s |
| Cc1cccc(NC(=O)C2CN(C(=O)c3cc(C)on3)C2)n1 | 601 s |
| Cc1nc2cc(-c3noc(-c4ccc5ccccc5n4)n3)ccc2o1 | 998 s |

| Compound | RP-LC retention time |
| --- | --- |
| C[C@H]1CN(C(=O)c2ccc(C#N)cc2)C[C@@H]1c1nc(-c2ccncc2)no1 | 717 s |
| O=C(NCCc1ccccn1)C1CCc2nc(N3CCOCC3)ncc2C1 (configuration not stated) | 645 s |
| Cc1cc(NC(=O)CN2CCc3nc(NC(=O)C4CC4)sc3C2)no1 | 546 s |
| O=c1c2cc3c(cc2nc(SCc2nc(-c4ccc(F)cc4)no2)n1-c1ccc(F)cc1)OCO3 | 1170 s |
| Cc1ccc(S(=O)(=O)Nc2cncc(C(=O)O)c2)cc1 | 614 s |
| Cc1nc(-c2ccc(N3CCN(C(=O)c4cccc(Cl)c4)CC3)nc2)sc1C | 957 s |
| O=C(Nc1cccc([N+](=O)[O-])c1)C(=O)Nc1ccc2c(c1)N(C(=O)C1CC1)CCC2 | 883 s |
| COc1nccnc1N1CCC(N(C)C(=O)Cc2c(C)noc2C)C1 (configuration not stated) | 642 s |
| Cc1cc(C)c(-c2csc(NC(=O)c3ccccc3[N+](=O)[O-])n2)c(C)c1 | 1070 s |
| O=C(Nc1ccccc1)C1CCCN(S(=O)(=O)c2cc(-c3noc(C4CCCC4)n3)cs2)C1 (configuration not stated) | 1220 s |
| O=C(Cn1c(C(F)(F)F)nc2cc3c(cc21)OCCO3)NCc1ccc2c(c1)OCCCO2 | 818 s |
| CC(C)n1cnc(S(=O)(=O)N2CCC(C(=O)N3CCN(C(=O)c4ccco4)CC3)CC2)c1 | 636 s |
| CCOc1ccc(-c2nc(CN(c3ccccc3)S(=O)(=O)c3cccs3)c(C)o2)cc1 | 1220 s |
| CC(C)CNC(=O)C1CCN(C(=O)Nc2ccc(NC(=O)NC3CCCC3)cc2)CC1 | 728 s |
| O=C(c1nc(-c2cccc(F)c2)n2c1CCCCC2)N1CCN(c2ncccn2)CC1 | 724 s |
| COC[C@@H]1CN(Cc2ccc3[nH]ccc3c2)C[C@H]1c1ccncc1 | 581 s |
| COc1cc(-c2nc(-c3ccc4c(c3)oc(=O)n4C)no2)cc(OC)c1OC | 985 s |
| CCc1nnc(-c2ccc(=O)n(CC(=O)N3CCC4(CC3)OCCO4)c2)o1 | 594 s |
| COc1cc(NC(=O)N2CCN(c3cc(C)nc(N4CCCCC4)n3)CC2)cc(OC)c1OC | 669 s |

Now from value to compound:

| RP-LC retention time | Compound |
| --- | --- |
| 988 s | Cc1ccc(C2c3[nH]c4ccccc4c3CCN2C(=O)Cc2cccs2)cc1 (configuration not stated) |
| 616 s | COC(=O)C(NC(=O)N1CCCn2nc(-c3cccnc3)cc2C1)c1ccccc1 (configuration not stated) |
| 851 s | O=C(Cn1nc2c(cc1=O)CCCC2)Nc1nc(-c2ccc3c(c2)OCO3)cs1 |
| 734 s | COc1ccc(-n2ccn(CC(=O)Nc3ccc(OC)c(Cl)c3)c2=O)cc1 |
| 910 s | Cc1ccc(Cl)cc1S(=O)(=O)NCC(=O)N1CCOC(c2ccccc2)C1 (configuration not stated) |
| 1220 s | CCn1cc(-c2nc(C(=O)Nc3cc(F)ccc3F)cs2)c2cccnc21 |
| 680 s | CCCNc1cc(N2CCC(CCC(=O)NCc3ccccc3F)CC2)ncn1 |
| 941 s | O=c1c(S(=O)(=O)N2CCCCCC2)cccn1Cc1ccccc1F |
| 744 s | COc1ccc(-c2cn3c(CC(=O)Nc4cc(F)ccc4F)csc3n2)cc1OC |
| 750 s | Cc1ccccc1-c1noc(-c2cccn(CC(=O)N3CCCC3)c2=O)n1 |
| 896 s | Cc1cccc(N2CCN(c3ccc(SCC(=O)Nc4cccc(F)c4)nn3)CC2)c1 |
| 1190 s | COCCCn1c(=O)c2ccccc2n(Cc2nc(-c3cccc(Br)c3)no2)c1=O |
| 1090 s | CC1CCN(c2nn(CC(=O)Nc3ccccc3F)c(=O)c3ccccc23)CC1 |
| 1270 s | COc1ccccc1N1CCN(c2nc3c(c(Nc4ccccc4)n2)C(=O)CCC3)CC1 |
| 982 s | CS(=O)(=O)N1CCC(C(=O)Nc2cccc(F)c2)Oc2ccc(Cl)cc21 (configuration not stated) |
| 837 s | COc1ccc(C2(C(=O)NCCC3CCN(C(=O)Nc4ccccc4F)CC3)CC2)cc1 |
| 936 s | CCCCn1cc(S(=O)(=O)Nc2cccc(F)c2)c2cccnc21 |
| 1110 s | O=c1c2ccccc2n(Cc2nc(-c3cccc(Cl)c3)no2)c(=O)n1CC1CCCO1 (configuration not stated) |
| 1100 s | O=S(=O)(c1ccc(-c2noc(-c3ccccc3Cl)n2)cc1)N1CCOCC1 |
| 885 s | O=C(CN1CCN(Cc2cccc(Cl)c2)C1=O)N1CCN(c2ccccc2)CC1 |
| 643 s | O=C(CS(=O)Cc1cnn(-c2ccccc2)c1-n1cccc1)N1CCN(C2CCCCC2)CC1 (configuration not stated) |
| 770 s | N#CC1=C(SCC(=O)NCc2ccccc2)NC(=O)CC1c1ccco1 (configuration not stated) |
| 764 s | COc1ccc(NC(=O)N2C[C@@H]3C[C@H]2C[C@@H]3NS(=O)(=O)c2ccccc2)c(C)c1 |
| 574 s | c1ccc2c(N3CCOCC3)nnc(N3CCCC3)c2c1 |

| RP-LC retention time | Compound |
| --- | --- |
| 676 s | COc1cccc2cc(C(=O)NCCn3nc(-c4cccs4)ccc3=O)oc12 |
| 616 s | O=C(c1cc2cc(Br)ccc2oc1=O)N1CCN(c2ccccn2)CC1 |
| 664 s | Cn1cc(CN2CCCC(COc3ccccc3C(=O)N3CCOCC3)C2)c2ccccc21 (configuration not stated) |
| 1070 s | COc1ccc(C2(C(=O)N3CCCC3c3nc(-c4ccccc4Cl)no3)CC2)cc1 (configuration not stated) |
| 811 s | COc1ccccc1NC(=O)Cn1ccc2ccc(-c3nnc(C)o3)cc21 |
| 1250 s | CCCCn1c(=O)c2ccccc2n(Cc2nc(-c3ccc(SC)cc3)no2)c1=O |
| 918 s | Cc1ccc(-n2c(N3CCCC(C(=O)NCc4ccc(F)cc4F)C3)nc3ccsc3c2=O)cc1 (configuration not stated) |
| 803 s | CCOCCCNC(=O)Nc1ccc2c(c1)CCN2S(=O)(=O)c1ccccc1 |
| 550 s | Cc1nc2c3ccccc3nc(NNC(=O)CCC(=O)N3CCN(c4ccccn4)CC3)n2n1 |
| 676 s | COCCN1[C@@H]2CCN(C(=O)Nc3ccccc3F)C[C@@]2(C(=O)N2CCOCC2)CCS1(=O)=O |
| 562 s | CN1CCN(c2ncc(C(=O)O)c(-c3ccccc3)n2)CC1 |
| 872 s | CCC(C(=O)N(C)CCc1noc(-c2ccc(C(=O)N3CCCC3)cc2)n1)c1ccccc1 (configuration not stated) |
| 780 s | COc1cccc(NC(=O)N2CCC3(CC2)NC(=O)c2cc(Cl)ccc2N3C)c1 |
| 645 s | O=C(c1nc(-c2cccc(F)c2)n2c1CCCCC2)N1CCN(c2ccccn2)CC1 |
| 622 s | Cc1nnc(N2CCC(C(=O)NCCCN3CCCC3=O)CC2)c2nn(-c3ccccc3)c(C)c12 |
| 891 s | Cc1ccc(C)c(N2CCN(c3ccnc(SCC(=O)Nc4ccc(F)cc4)n3)CC2)c1 |
| 670 s | O=C(Cn1c(=O)oc2ccccc21)N1CCN(S(=O)(=O)C2CC2)CC1 |
| 732 s | CS(=O)(=O)N1CCC(CNC(=O)NC(c2ccccc2)c2ccccc2)CC1 |
| 708 s | Cc1cc2nn(CC(=O)N3CCOCC3)c(=O)n2c(-c2cccc(Cl)c2)n1 |
| 881 s | O=C(c1cc2ccccc2[nH]1)N1CCC(Cn2c(C(F)(F)F)nc3ccccc32)CC1 |
| 679 s | O=C(NCc1cccc(Br)c1)c1ccc2ncnc(N3CCCC3)c2c1 |
| 593 s | N#Cc1cccc(NC(=O)Cc2cn3cc(F)ccc3n2)c1 |
| 800 s | COC(=O)c1ccc2c(=O)n(-c3ccc(OC)c(OC)c3)c(N3CCOCC3)nc2c1 |
| 664 s | CCNC(=O)C1CCCN(c2nc3ncn(CC(=O)Nc4ccccc4Cl)c(=O)c3s2)C1 (configuration not stated) |

— the METLIN SMRT retention time set (Domingo-Almenara et al. 2019)
